{"source": "paper PMC9079959", "about": "“Substituted spirooxindole derivatives as potent anticancer agents through inhibition of phosphodiesterase 1” (RSC Advances, 2018)", "key": {"phosphodiesterase 1": {"tested_on": "phosphodiesterase 1", "assay_type": "biochemical, snake", "details": "at 2 μM", "description": "A phosphodiesterase I inhibition assay was performed using snake venom according to a previously reported method with minute variations. Briefly, 33 mM Tris–HCl buffer of pH 8.8 (97 μl), 30 mM magnesium acetate with an enzyme concentration of 0.000742 U well^−1 and 0.33 mM bis-(p-nitrophenyl) phosphate (Sigma N-3002, 60 μl) as substrate were taken. […] After a pre-incubation period of 30 min, the enzyme with the test samples was observed spectrophotometrically for enzyme activity on a microtiter plate reader at 37 °C by following the rate of change in OD min^−1 at 410 nm of the p-nitrophenol released from p-nitrophenyl phosphate. All assays were processed in triplicate.[47]"}, "HCT-116 cells": {"tested_on": "HCT-116 cells", "test": "MTT cytotoxicity assay, colorectal cancer cell line HCT-116", "assay_type": "cell-based", "details": "for IC50: Homo sapiens, HCT-116, MTT, 48 h", "method": "(§1) The cytotoxic activity of the compounds was tested against different mammalian cancer cells, prostate carcinoma cells (PC-3), hepatocellular carcinoma (HepG2) and colon cancer cells (HCT-116). African green monkey kidney cells (Vero-B) were used as normal cells to study the selectivity towards the cancer cells. The cell lines were obtained from the American Type Culture Collection (ATCC). The cells were cultivated at 37 °C and 10% CO2 in DMEM (Lonza, Germany) medium supplemented with 10% fetal bovine serum (Lonza, Germany), 100 IU ml^−1 penicillin and 100 μg ml^−1 streptomycin (Lonza, Germany). […] The spirooxindole derivatives were solubilized in DMSO and stored at −20 °C. The viability of the cells was quantified using 3-(4,5-dimethylthiazol-2-yl)-2,5-diphenyl tetrazolium bromide (MTT), which measures the activity of mitochondrial succinate dehydrogenase in viable cells.[45,46]\n(§2) The cells were seeded in 96-well plates at a concentration of 5 × 10^4 cells per ml (100 μl per well). […] DMSO was used as a negative control (0.1%). The cells were incubated for 48 h. After that, 15 μl of MTT (5 mg ml^−1 in PBS) was added to each well and incubated for another 4 h. The formazan crystals were solubilized by 100 μl of acidified SDS solution (10% SDS/0.01 N HCl in PBS). The absorbance was measured after 14 h of incubation at 37 °C and under 5% CO2 at 570 nm by using a BioTek microplate reader. Each experiment was repeated 3 times and a standard deviation was calculated (SD±). […] The growth of the cells was monitored and the images were acquired by Gx microscopes (GXMGXD202 Inverted Microscope) at 10× magnification."}, "HepG2 cells": {"tested_on": "HepG2 cells", "test": "MTT cytotoxicity assay, hepatocellular carcinoma HepG2", "assay_type": "cell-based", "details": "Homo sapiens, HepG2, MTT, 48 h", "method": "as §1, §2"}, "PC-3 cells": {"tested_on": "PC-3 cells", "test": "MTT cytotoxicity assay, prostate cancer cell line PC-3", "assay_type": "cell-based", "details": "Homo sapiens, PC-3, MTT, 48 h", "method": "as §1, §2"}, "Vero-B cells": {"tested_on": "Vero-B cells", "test": "MTT cytotoxicity assay, normal cells Vero-B", "assay_type": "cell-based, African green monkey", "details": "Chlorocebus sabaeus, Vero B, 48 h", "method": "as §1, §2"}}, "note": "Values joined by “and” are separate entries in the source; they are usually repeats but may differ in a detail not shown here. Equal entries are not always repeated. Where two headings read alike, the source gives them in different places.", "data": [{"smiles": "O=C(c1c[nH]c2ccccc12)[C@@H]1C(c2ccc(Cl)cc2Cl)[C@@H]2CCCN2[C@@]12C(=O)Nc1ccccc12", "note": "(stereo partly drawn) [4d, (2′R,3S,7a′S)-1′-(2,4-Dichlorophenyl)-2′-(1H-indole-3-carbonyl)-1′,2′,5′,6′,7′,7a′-hexahydrospiro[indoline-3,3′-pyrrolizin]-2-one]", "values": [{"measurement": "inhibitory activity against phosphodiesterase enzyme", "setting": "phosphodiesterase 1", "value": 74.2, "unit": "%"}, {"measurement": "melting point", "value": "149 to 151", "unit": "°C"}, {"measurement": "IC50", "setting": "HCT-116 cells; ± SD of 3 experiments, read-out: HCT-116 (IC50)", "value": "9 ± 0.6", "unit": "µM"}, {"measurement": "IC50", "setting": "HCT-116 cells; read-out: HCT-116 (IC50, μg ml^−1)", "value": 4.6, "unit": "µg/mL"}, {"measurement": "SI (selectivity index)", "setting": "HCT-116 cells; IC50 normal (VERO-B) / IC50 cancer (HCT-116)", "value": "> 1 and 1"}, {"measurement": "IC50", "setting": "HepG2 cells; ± SD of 3 experiments, read-out: HepG2 (IC50)", "value": "2 ± 0.1", "unit": "µM"}, {"measurement": "IC50", "setting": "HepG2 cells; read-out: HepG2 (IC50, μg ml^−1)", "value": 1, "unit": "µg/mL"}, {"measurement": "IC50", "setting": "PC-3 cells; ± SD of 3 experiments, read-out: PC-3 (IC50)", "value": "2 ± 0.125", "unit": "µM"}, {"measurement": "IC50", "setting": "PC-3 cells; read-out: PC-3 (IC50, μg ml^−1)", "value": 1, "unit": "µg/mL"}, {"measurement": "IC50", "setting": "Vero-B cells", "value": 9, "unit": "µM"}]}]}
